Read-outs that look alike come from different tables or passages of the source.
Columns and labels:
[1] = Pharmacokinetics in female BALB/c nude mice bearing A375 xenografts, 1 day dosing (PK and PD study): plasma, tumor and brain concentrations, AUC; assay type: in vivo; conditions: mouse, po
Source text: The concentrations of Dabrafenib, Compound 26 and Compound 141 in the treatment of female BALB/c nude mice bearing A375 xenografts are shown in Table 62-Table 72 and FIG. 52-FIG. 73.

[2] = system: luciferase-tagged A375 human melanoma CNS tumor; assay: Survival of mice in CNS tumor study (BRAF intracranial model) (Example 12); assay type: in vivo, human A375 CNS xenograft in mice; conditions: versus encorafenib
Procedure: FIG. 48 is the survival curve for the mice after administration of vehicle, encorafenib, Compound 26, Compound 141 in CNS tumor study. The x-axis is time measured in days and the y-axis is probability of survival. The experiment was conducted as described in Example 12.
FIG. 85 is an extended survival curve for the BRAF intracranial model experiment after administration of vehicle, encorafenib, Compound 26, and Compound 141 in the CNS tumor study. The x-axis is time measured in days and the y-axis is probability of survival. The experiment was conducted as described in Example 12.

[3] = plasma, 1.5 mg/kg, Compound 141, 1.5 mg/kg p.o. BID × 1 day, post 1st dose, read-out: Mean Concentration in Plasma ± SEM
[4] = plasma, 1.5 mg/kg, Compound 141, 1.5 mg/kg p.o. BID × 1 day, post 2nd dose, read-out: Mean Concentration in Plasma ± SEM
[5] = plasma, 3 mg/kg, 3 mg/kg p.o. QD × 1 day, read-out: Mean Concentration in Plasma ± SEM
[6] = plasma, 5 mg/kg, 5 mg/kg p.o. BID × 1 day, post 1st dose, read-out: Mean Concentration in Plasma ± SEM
[7] = plasma, 5 mg/kg, 5 mg/kg p.o. BID × 1 day, post 2nd dose, read-out: Mean Concentration in Plasma ± SEM
[8] = tumor, 0.75 mg/kg, 0.75 mg/kg p.o. BID × 1 day, post 2nd dose, read-out: Mean Concentration in Tumor ± SEM
[9] = tumor, 1 mg/kg, 1 mg/kg p.o. TID × 1 day, post 3rd dose, read-out: Mean Concentration in Tumor ± SEM
[10] = tumor, 1.5 mg/kg, Compound 141, 1.5 mg/kg p.o. BID × 1 day, post 2nd dose, read-out: Mean Concentration in Tumor ± SEM
[11] = tumor, 3 mg/kg, 3 mg/kg p.o. QD × 1 day, read-out: Mean Concentration in Tumor ± SEM
[12] = tumor, 5 mg/kg, 5 mg/kg p.o. BID × 1 day, post 2nd dose, read-out: Mean Concentration in Tumor ± SEM

## CCN(C)S(=O)(=O)Nc1ccc(F)c(Oc2ccc3ncn(C4CC5(CCN(C6CC7(C6)CN(c6cc8c(cc6F)c(N6CCC(=O)NC6=O)nn8C)C7)CC5)C4)c(=O)c3c2)c1C#N (centres unmarked) [Compound 141, 6-[2-cyano-3-[[ethyl(methyl)sulfamoyl]amino]-6-fluoro-phenoxy]-3-[7-[2-[3-(2,4-dioxohexahydropyrimidin-1-yl)-5-fluoro-1-methyl-indazol-6-yl]-2-azaspiro[3.3]heptan-6-yl]-7-azaspiro[3.5]nonan-2-yl]-4-oxo-quinazoline]
[1]; [3]
  concentration at 0.25 h: 710 ± 61.9 ng/mL
  concentration at 0.5 h: 1150 ± 94 ng/mL
  concentration at 1 h: 2030 ± 255 ng/mL
  concentration at 2 h: 1610 ± 128 ng/mL
  concentration at 4 h: 796 ± 312 ng/mL
  concentration at 8 h: 256 ± 19.3 ng/mL
  concentration at 12 h: 43.4 ± 4.65 ng/mL
[1]; [4]
  concentration at 0.25 h: 359 ± 30.7 ng/mL
  concentration at 0.5 h: 830 ± 129 ng/mL
  concentration at 1 h: 1560 ± 99.1 ng/mL
  concentration at 2 h: 1550 ± 181 ng/mL
  concentration at 4 h: 831 ± 96.6 ng/mL
  concentration at 10 h: 115 ± 34.3 ng/mL
  concentration at 24 h: 1.2 ± 0.262 ng/mL
[1]; [5]
  concentration at 0.25 h: 1070 ± 209 ng/mL
  concentration at 0.5 h: 2020 ± 160 ng/mL
  concentration at 1 h: 2830 ± 372 ng/mL
  concentration at 2 h: 3660 ± 315 ng/mL
  concentration at 4 h: 1440 ± 285 ng/mL
  concentration at 8 h: 661 ± 279 ng/mL
  concentration at 10 h: 307 ± 60.4 ng/mL
  concentration at 24 h: 3.86 ± 2.5 ng/mL
  concentration at 36 h: 1.05 ng/mL
[1]; [6]
  concentration at 0.25 h: 1810 ± 126 ng/mL
  concentration at 0.5 h: 3460 ± 404 ng/mL
  concentration at 1 h: 4860 ± 155 ng/mL
  concentration at 2 h: 3650 ± 760 ng/mL
  concentration at 4 h: 1220 ± 55.5 ng/mL
  concentration at 8 h: 648 ± 142 ng/mL
  concentration at 12 h: 43.6 ± 2.7 ng/mL
[1]; [7]
  concentration at 0.25 h: 1680 ± 89.6 ng/mL
  concentration at 0.5 h: 3160 ± 596 ng/mL
  concentration at 1 h: 4850 ± 488 ng/mL
  concentration at 2 h: 3620 ± 428 ng/mL
  concentration at 4 h: 1750 ± 468 ng/mL
  concentration at 10 h: 484 ± 109 ng/mL
  concentration at 24 h: 4.28 ± 1.89 ng/mL
  concentration at 36 h: 2.06 ± 1.17 ng/mL
  concentration at 48 h: 0.635 ng/mL
[1]; [8]
  concentration at 1 h: 117 ± 11 ng/g
  concentration at 4 h: 143 ± 37.7 ng/g
  concentration at 10 h: 93 ± 22.1 ng/g
  concentration at 24 h: 3.27 ng/g
[1]; [9]
  concentration at 1 h: 152 ± 35.7 ng/g
  concentration at 4 h: 254 ± 43.2 ng/g
  concentration at 10 h: 205 ± 40.9 ng/g
  concentration at 24 h: 16.7 ± 12.2 ng/g
  concentration at 48 h: 8.07 ng/g
[1]; [10]
  concentration at 0.25 h: 58.9 ± 26.7 ng/g
  concentration at 0.5 h: 61.5 ± 14 ng/g
  concentration at 1 h: 239 ± 17.6 ng/g
  concentration at 2 h: 382 ± 43.9 ng/g
  concentration at 4 h: 214 ± 27.1 ng/g
  concentration at 10 h: 54.7 ± 17.9 ng/g
  concentration at 24 h: 22.5 ± 18.5 ng/g
  concentration at 36 h: 38.5 ng/g
  concentration at 48 h: 11.1 ng/g
[1]; [11]
  concentration at 1 h: 254 ± 26.3 ng/g
  concentration at 4 h: 439 ± 90.9 ng/g
  concentration at 10 h: 130 ± 19 ng/g
  concentration at 24 h: 12.9 ± 7.75 ng/g
  concentration at 48 h: 7.64 ng/g
[1]; [12]
  concentration at 1 h: 626 ± 78.6 ng/g
  concentration at 4 h: 636 ± 83.4 ng/g
  concentration at 10 h: 205 ± 47.2 ng/g
  concentration at 24 h: 6.26 ± 1.12 ng/g
  concentration at 48 h: 10.6 ng/g
[2]
  survival of CNS tumor-bearing mice compared with encorafenib: lived significantly longer
